Measured values taken from PubChem BioAssay (NCI).
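The compound was tested at five concentrations on cells cultured in 96-well plates, with a 48-hour exposure period. TGI is the concentration that stops growth completely.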

Tests used:
Experiment in all cases: growth of human tumour cells (NCI), 48 h
[1] = tested on: 786-0 renal
[2] = tested on: A498 renal
[3] = tested on: A549 NSCLC
[4] = tested on: ACHN renal
[5] = tested on: CAKI-1 renal
[6] = tested on: COLO 205 colon
[7] = tested on: DLD-1 colon
[8] = tested on: DMS 114 small cell lung
[9] = tested on: DMS 273 small cell lung
[10] = tested on: EKVX NSCLC
[11] = tested on: HCT-116 colon
[12] = tested on: HCT-15 colon
[13] = tested on: HL-60(TB) leukemia
[14] = tested on: HOP-92 NSCLC
[15] = tested on: HT29 colon
[16] = tested on: IGROV1 ovarian
[17] = tested on: K-562 leukemia
[18] = tested on: KM20L2 colon
[19] = tested on: LOX IMVI melanoma
[20] = tested on: LXFL 529 NSCLC
[21] = tested on: M14 melanoma
[22] = tested on: M19-MEL melanoma
[23] = tested on: MALME-3M melanoma
[24] = tested on: MOLT-4 leukemia
[25] = tested on: NCI-H226 lung
[26] = tested on: NCI-H23 lung
[27] = tested on: NCI-H460 lung
[28] = tested on: NCI-H522 lung
[29] = tested on: OVCAR-3 ovarian
[30] = tested on: OVCAR-4 ovarian
[31] = tested on: OVCAR-5 ovarian
[32] = tested on: OVCAR-8 ovarian
[33] = tested on: RPMI-8226 leukemia
[34] = tested on: RXF 393 renal
[35] = tested on: SF-268 CNS
[36] = tested on: SF-295 CNS
[37] = tested on: SF-539 CNS
[38] = tested on: SK-MEL-2 melanoma
[39] = tested on: SK-MEL-28 melanoma
[40] = tested on: SK-MEL-5 melanoma
[41] = tested on: SK-OV-3 ovarian
[42] = tested on: SN12C renal
[43] = tested on: SNB-19 CNS
[44] = tested on: SNB-75 CNS
[45] = tested on: SNB-78 CNS
[46] = tested on: SW-620 colon
[47] = tested on: TK-10 renal
[48] = tested on: UACC-257 melanoma
[49] = tested on: UACC-62 melanoma
[50] = tested on: UO-31 renal
[51] = tested on: XF 498 CNS
[52] = tested on: CCRF-CEM leukemia
[53] = tested on: HCC-2998 colon
[54] = tested on: HOP-18 NSCLC
[55] = tested on: HOP-62 NSCLC
[56] = tested on: KM12 colon
[57] = tested on: RXF-631 renal
[58] = tested on: SR leukemia
[59] = tested on: U251 CNS

`O=C(CC1(O)C(=O)Nc2ccccc21)c1ccc(F)cc1` (centres undefined) was tested, and the TGI [1] was > 100 µM, the TGI [2] was > 100 µM and the TGI [3] was > 100 µM. For the same molecule, the TGI [4] was > 100 µM, the TGI [5] was > 100 µM and the TGI [6] was > 100 µM. For the same molecule, the TGI [7] was > 100 µM, the TGI [8] was > 100 µM and the TGI [9] was > 100 µM. For the same molecule, the TGI [10] was > 100 µM, the TGI [11] was > 100 µM and the TGI [12] was > 100 µM. The TGI [13] was > 100 µM, the TGI [14] was > 100 µM and the TGI [15] was > 100 µM. For the same molecule, the TGI [16] was > 100 µM, the TGI [17] was > 100 µM and the TGI [18] was > 100 µM. For the same molecule, the TGI [19] was > 100 µM, the TGI [20] was > 100 µM and the TGI [21] was > 100 µM. The TGI [22] was > 100 µM, the TGI [23] was > 100 µM and the TGI [24] was > 100 µM. The TGI [25] was > 100 µM, the TGI [26] was > 100 µM and the TGI [27] was > 100 µM. For the same molecule, the TGI [28] was > 100 µM, the TGI [29] was > 100 µM and the TGI [30] was > 100 µM. For the same molecule, the TGI [31] was > 100 µM, the TGI [32] was > 100 µM and the TGI [33] was > 100 µM. The TGI [34] was > 100 µM, the TGI [35] was > 100 µM and the TGI [36] was > 100 µM. For the same molecule, the TGI [37] was > 100 µM, the TGI [38] was > 100 µM and the TGI [39] was > 100 µM. The TGI [40] was > 100 µM, the TGI [41] was > 100 µM and the TGI [42] was > 100 µM. For the same molecule, the TGI [43] was > 100 µM, the TGI [44] was > 100 µM and the TGI [45] was > 100 µM. The TGI [46] was > 100 µM, the TGI [47] was > 100 µM and the TGI [48] was > 100 µM. The TGI [49] was > 100 µM, the TGI [50] was > 100 µM and the TGI [51] was > 100 µM.
With `Nc1c(C(=O)N/N=C/c2ccc(Cl)cc2)sc(=S)n1-c1ccccc1` the TGI [2] was > 100 µM, the TGI [3] was > 100 µM and the TGI [4] was > 100 µM. The TGI [52] was > 100 µM, the TGI [6] was > 100 µM and the TGI [7] was > 100 µM. The TGI [53] was > 100 µM, the TGI [11] was > 100 µM and the TGI [13] was > 100 µM. The TGI [54] was > 100 µM, the TGI [55] was > 100 µM and the TGI [14] was > 100 µM. The TGI [15] was > 100 µM, the TGI [16] was > 100 µM and the TGI [17] was > 100 µM. The TGI [56] was > 100 µM, the TGI [20] was > 100 µM and the TGI [22] was > 100 µM. For the same molecule, the TGI [25] was > 100 µM, the TGI [26] was > 100 µM and the TGI [27] was > 100 µM. For the same molecule, the TGI [28] was 91.9 µM, the TGI [29] was > 100 µM and the TGI [31] was > 100 µM. The TGI [32] was > 100 µM, the TGI [35] was > 100 µM and the TGI [36] was > 100 µM. The TGI [37] was > 100 µM, the TGI [39] was > 100 µM and the TGI [40] was > 100 µM. The TGI [41] was > 100 µM, the TGI [43] was > 100 µM and the TGI [44] was > 100 µM. For the same molecule, the TGI [46] was > 100 µM, the TGI [47] was > 100 µM and the TGI [48] was > 100 µM. For the same molecule, the TGI [49] was > 100 µM and the TGI [50] was > 100 µM.
With `Cc1ccc2c(c1)C1(OC(=O)c3ccccc31)c1ccc(F)cc1O2` (centres undefined) the TGI [1] was > 100 µM, the TGI [3] was > 100 µM and the TGI [5] was > 100 µM. The TGI [52] was > 100 µM, the TGI [6] was > 100 µM and the TGI [7] was > 100 µM. The TGI [8] was > 100 µM, the TGI [10] was > 100 µM and the TGI [53] was > 100 µM. The TGI [11] was > 100 µM, the TGI [13] was 51 µM and the TGI [54] was > 100 µM. The TGI [55] was > 100 µM, the TGI [14] was > 100 µM and the TGI [15] was > 100 µM. For the same molecule, the TGI [16] was > 100 µM, the TGI [17] was > 100 µM and the TGI [56] was > 100 µM. The TGI [18] was > 100 µM, the TGI [19] was > 100 µM and the TGI [20] was > 100 µM. For the same molecule, the TGI [21] was > 100 µM, the TGI [22] was > 100 µM and the TGI [23] was > 100 µM. For the same molecule, the TGI [24] was 54.9 µM, the TGI [25] was 85.8 µM and the TGI [28] was > 100 µM. For the same molecule, the TGI [29] was > 100 µM, the TGI [30] was > 100 µM and the TGI [31] was > 100 µM. The TGI [32] was > 100 µM, the TGI [33] was 74.1 µM and the TGI [57] was > 100 µM. For the same molecule, the TGI [35] was > 100 µM, the TGI [38] was > 100 µM and the TGI [40] was > 100 µM. The TGI [41] was > 100 µM, the TGI [42] was > 100 µM and the TGI [58] was 73.8 µM. The TGI [46] was > 100 µM, the TGI [47] was > 100 µM and the TGI [48] was > 100 µM. The TGI [49] was > 100 µM, the TGI [50] was 75.8 µM and the TGI [51] was > 100 µM.
For `NC(=O)c1ncn(CCN2CCN(C(=O)NCCCCCCNC(=O)N3CCN(CCn4cnc(C(N)=O)c4N)CC3)CC2)c1N`, the TGI [1] was > 100 µM, the TGI [3] was > 100 µM and the TGI [4] was > 100 µM. For the same molecule, the TGI [5] was > 100 µM, the TGI [52] was > 100 µM and the TGI [6] was > 100 µM. The TGI [7] was > 100 µM, the TGI [9] was > 100 µM and the TGI [10] was > 100 µM. For the same molecule, the TGI [53] was > 100 µM, the TGI [11] was > 100 µM and the TGI [12] was > 100 µM. The TGI [13] was > 100 µM, the TGI [54] was > 100 µM and the TGI [55] was > 100 µM. For the same molecule, the TGI [14] was > 100 µM, the TGI [15] was > 100 µM and the TGI [16] was > 100 µM. The TGI [17] was > 100 µM, the TGI [56] was > 100 µM and the TGI [18] was > 100 µM. The TGI [19] was > 100 µM, the TGI [20] was > 100 µM and the TGI [21] was > 100 µM. For the same molecule, the TGI [23] was > 100 µM, the TGI [24] was > 100 µM and the TGI [25] was > 100 µM. For the same molecule, the TGI [26] was > 100 µM, the TGI [27] was > 100 µM and the TGI [29] was > 100 µM. The TGI [30] was > 100 µM, the TGI [31] was > 100 µM and the TGI [32] was > 100 µM. For the same molecule, the TGI [33] was > 100 µM, the TGI [34] was > 100 µM and the TGI [57] was > 100 µM. The TGI [35] was > 100 µM, the TGI [36] was > 100 µM and the TGI [37] was > 100 µM. For the same molecule, the TGI [38] was > 100 µM, the TGI [39] was > 100 µM and the TGI [40] was > 100 µM. The TGI [41] was > 100 µM, the TGI [42] was > 100 µM and the TGI [43] was > 100 µM. The TGI [44] was > 100 µM, the TGI [45] was > 100 µM and the TGI [58] was > 100 µM. The TGI [46] was > 100 µM, the TGI [47] was > 100 µM and the TGI [59] was > 100 µM. For the same molecule, the TGI [48] was > 100 µM, the TGI [49] was > 100 µM and the TGI [50] was > 100 µM. The TGI [51] was > 100 µM.
